Assay results as given in ChEMBL document CHEMBL1201862, “PubChem BioAssay data set” (2004).
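Step 1: Grow cells in 96-well plates. Step 2: Expose to compound for 48 hours at 5 concentrations. Step 3: Interpolate endpoints linearly; if unreached, use highest concentration. GI50 marks 50% less growth.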 Calls of active or inactive are those of the source. Cut-off read from the data, not from the text of the source: active = GI50 up to about 1.1 µM and inactive = higher.

Columns and labels:
Test in all cases: NCI-60 cell line screen, 48 h
UACC-62 = test system: UACC-62
LOX IMVI = test system: LOX IMVI
DU-145 = test system: DU-145
TK-10 = test system: TK-10
UO-31 = test system: UO-31
NCI/ADR-RES = test system: NCI/ADR-RES
OVCAR-8 = test system: OVCAR-8
BT-549 = test system: BT-549
HT-29 = test system: HT-29
A498 = test system: A498
KM12 = test system: KM12
786-0 = test system: 786-0
HCC 2998 = test system: HCC 2998
Malme-3M = test system: Malme-3M
SK-MEL-2 = test system: SK-MEL-2
SK-MEL-28 = test system: SK-MEL-28
OVCAR-4 = test system: OVCAR-4
SW-620 = test system: SW-620
HOP-62 = test system: HOP-62

SMILES	GI50 (UACC-62)	GI50 (LOX IMVI)	GI50 (DU-145)	GI50 (TK-10)	GI50 (UO-31)	GI50 (NCI/ADR-RES)	GI50 (OVCAR-8)	GI50 (BT-549)	GI50 (HT-29)	GI50 (A498)	GI50 (KM12)	GI50 (786-0)	GI50 (HCC 2998)	GI50 (Malme-3M)	GI50 (SK-MEL-2)	GI50 (SK-MEL-28)	GI50 (OVCAR-4)	GI50 (SW-620)	GI50 (HOP-62)
c1ccc2nc3c(nc2c1)sc1nc2ccccc2n13	> 100 µM (inactive)	> 100 µM (inactive)	> 100 µM (inactive)	> 100 µM (inactive)	> 100 µM (inactive)	> 100 µM (inactive)	> 100 µM (inactive)	> 100 µM (inactive)	> 100 µM (inactive)	26.1 µM (inactive)	> 100 µM (inactive)	46.1 µM (inactive)	> 100 µM (inactive)	> 100 µM (inactive)	–	–	–	–	–
CC1(C)OC(CCO)CN1C(=O)OCc1ccccc1 (configuration not stated)	> 100 µM (inactive)	> 100 µM (inactive)	> 100 µM (inactive)	> 100 µM (inactive)	> 100 µM (inactive)	> 100 µM (inactive)	> 100 µM (inactive)	33.6 µM (inactive)	–	> 100 µM (inactive)	> 100 µM (inactive)	> 100 µM (inactive)	> 100 µM (inactive)	> 100 µM (inactive)	> 100 µM (inactive)	> 100 µM (inactive)	> 100 µM (inactive)	> 100 µM (inactive)	–
O=c1c2sc3ccccc3sc=2c(=O)c2c(Cl)c(Cl)c(Cl)c(Cl)c12	> 100 µM (inactive)	–	> 100 µM (inactive)	> 100 µM (inactive)	> 100 µM (inactive)	> 100 µM (inactive)	> 100 µM (inactive)	> 100 µM (inactive)	> 100 µM (inactive)	> 100 µM (inactive)	> 100 µM (inactive)	> 100 µM (inactive)	96.2 µM (inactive)	> 100 µM (inactive)	> 100 µM (inactive)	> 100 µM (inactive)	> 100 µM (inactive)	> 100 µM (inactive)	> 100 µM (inactive)
COc1ccc(/N=[N+](\[O-])c2ccc(OC)cc2)cc1	> 100 µM (inactive)	–	> 100 µM (inactive)	> 100 µM (inactive)	> 100 µM (inactive)	> 100 µM (inactive)	> 100 µM (inactive)	> 100 µM (inactive)	> 100 µM (inactive)	> 100 µM (inactive)	> 100 µM (inactive)	> 100 µM (inactive)	> 100 µM (inactive)	> 100 µM (inactive)	> 100 µM (inactive)	> 100 µM (inactive)	> 100 µM (inactive)	–	> 100 µM (inactive)
COc1cc(C)c2c(=O)c3ccccc3n(C)c2c1	20.3 µM (inactive)	17.4 µM (inactive)	33.2 µM (inactive)	40.9 µM (inactive)	–	30.5 µM (inactive)	22.6 µM (inactive)	20.8 µM (inactive)	11.8 µM (inactive)	26.5 µM (inactive)	23.9 µM (inactive)	10.6 µM (inactive)	45 µM (inactive)	27.1 µM (inactive)	36.4 µM (inactive)	32 µM (inactive)	19.7 µM (inactive)	45.3 µM (inactive)	> 10 µM (inactive)
Cc1c2c(n(CCc3ccccc3)c1C)N(C)N=C(C#N)S2(=O)=O	> 100 µM (inactive)	–	> 100 µM (inactive)	> 100 µM (inactive)	> 100 µM (inactive)	> 100 µM (inactive)	> 100 µM (inactive)	> 100 µM (inactive)	> 100 µM (inactive)	> 10 µM (inactive)	> 100 µM (inactive)	> 100 µM (inactive)	> 100 µM (inactive)	–	> 100 µM (inactive)	> 100 µM (inactive)	> 100 µM (inactive)	> 100 µM (inactive)	> 100 µM (inactive)
CC(=O)OCC1OC(n2c3c(cc(C#N)c2=S)CCCCCC3)C(OC(C)=O)C(OC(C)=O)C1OC(C)=O (configuration not stated)	54.7 µM (inactive)	21.5 µM (inactive)	> 100 µM (inactive)	> 100 µM (inactive)	> 100 µM (inactive)	> 100 µM (inactive)	69.8 µM (inactive)	> 100 µM (inactive)	41.2 µM (inactive)	> 100 µM (inactive)	> 100 µM (inactive)	99.8 µM (inactive)	27.5 µM (inactive)	> 100 µM (inactive)	> 100 µM (inactive)	> 100 µM (inactive)	> 100 µM (inactive)	–	> 100 µM (inactive)
CCN1C(=O)/C(=C2\SC(c3ccccc3)(c3ccccc3)c3ccccc32)SC1=S	> 100 µM (inactive)	38.6 µM (inactive)	> 100 µM (inactive)	> 100 µM (inactive)	> 100 µM (inactive)	> 100 µM (inactive)	75.5 µM (inactive)	43.9 µM (inactive)	> 100 µM (inactive)	46 µM (inactive)	> 100 µM (inactive)	43.3 µM (inactive)	> 100 µM (inactive)	> 100 µM (inactive)	–	94.2 µM (inactive)	63.4 µM (inactive)	–	27.5 µM (inactive)
CC(=O)OC[C@]1(C(=O)C(O)c2ccoc2)[C@H](C)CC[C@@]23COC(=O)C2=CCC[C@@H]31 (some centres not stated)	> 10 µM (inactive)	> 10 µM (inactive)	> 10 µM (inactive)	> 10 µM (inactive)	> 10 µM (inactive)	> 10 µM (inactive)	> 10 µM (inactive)	> 10 µM (inactive)	> 10 µM (inactive)	> 10 µM (inactive)	> 10 µM (inactive)	> 10 µM (inactive)	> 10 µM (inactive)	–	> 10 µM (inactive)	–	> 10 µM (inactive)	> 10 µM (inactive)	–
CCN(CC)CCCNC(=O)c1cc2cc(NC(=O)c3cc4cc([N+](=O)[O-])ccc4[nH]3)ccc2[nH]1	32.8 µM (inactive)	–	> 100 µM (inactive)	> 100 µM (inactive)	> 100 µM (inactive)	> 100 µM (inactive)	> 100 µM (inactive)	> 100 µM (inactive)	35 µM (inactive)	27.4 µM (inactive)	7.21 µM (inactive)	40.8 µM (inactive)	> 100 µM (inactive)	–	> 100 µM (inactive)	30.3 µM (inactive)	> 100 µM (inactive)	68.2 µM (inactive)	28.6 µM (inactive)
O=C1Nc2cccc(Cl)c2/C1=C\c1cccnc1	–	0.944 µM (active)	6.37 µM (inactive)	17.8 µM (inactive)	5.16 µM (inactive)	4.43 µM (inactive)	4.33 µM (inactive)	8.53 µM (inactive)	5.92 µM (inactive)	21 µM (inactive)	5.96 µM (inactive)	7.43 µM (inactive)	2.15 µM (inactive)	9.93 µM (inactive)	11.1 µM (inactive)	16.4 µM (inactive)	12.7 µM (inactive)	9.57 µM (inactive)	6.12 µM (inactive)
C(=N\c1ccc2c(c1)Cc1ccccc1-2)/c1ccccn1	89.3 µM (inactive)	57.1 µM (inactive)	88.3 µM (inactive)	42.7 µM (inactive)	> 100 µM (inactive)	91.2 µM (inactive)	> 100 µM (inactive)	81.8 µM (inactive)	63.1 µM (inactive)	44.3 µM (inactive)	89.3 µM (inactive)	34.8 µM (inactive)	–	> 100 µM (inactive)	43.3 µM (inactive)	> 100 µM (inactive)	> 100 µM (inactive)	44.6 µM (inactive)	> 100 µM (inactive)
O=C(N/N=C\c1cccc2ccccc12)Nc1cccc2ccccc12	–	22.9 µM (inactive)	> 100 µM (inactive)	19.9 µM (inactive)	76.9 µM (inactive)	> 100 µM (inactive)	32.4 µM (inactive)	27.7 µM (inactive)	4.17 µM (inactive)	15.7 µM (inactive)	11 µM (inactive)	11.7 µM (inactive)	33.7 µM (inactive)	35.2 µM (inactive)	28.8 µM (inactive)	32.9 µM (inactive)	> 10 µM (inactive)	10.6 µM (inactive)	7.11 µM (inactive)
O=C(O)Cc1ccc2nc(COC(=O)c3ccccc3)sc2c1	> 100 µM (inactive)	> 100 µM (inactive)	> 100 µM (inactive)	> 100 µM (inactive)	> 100 µM (inactive)	> 100 µM (inactive)	> 100 µM (inactive)	> 100 µM (inactive)	–	> 100 µM (inactive)	> 100 µM (inactive)	> 100 µM (inactive)	> 100 µM (inactive)	> 100 µM (inactive)	> 100 µM (inactive)	> 100 µM (inactive)	> 100 µM (inactive)	> 100 µM (inactive)	> 100 µM (inactive)
COc1ccc2c(c1)C(=O)C1(C2)[C@H](c2ccccc2)C2C(=O)c3cc(OC)ccc3C2[C@H]1c1ccccc1 (some centres not stated)	> 100 µM (inactive)	> 100 µM (inactive)	> 100 µM (inactive)	> 100 µM (inactive)	> 100 µM (inactive)	> 100 µM (inactive)	> 100 µM (inactive)	> 100 µM (inactive)	> 100 µM (inactive)	> 100 µM (inactive)	> 100 µM (inactive)	> 100 µM (inactive)	> 100 µM (inactive)	> 100 µM (inactive)	–	> 100 µM (inactive)	> 100 µM (inactive)	> 100 µM (inactive)	> 100 µM (inactive)
C[C@H](Nc1nc(N)c(N=O)c(=O)n1C)C(=O)O	> 10 µM (inactive)	> 10 µM (inactive)	> 10 µM (inactive)	> 10 µM (inactive)	–	> 10 µM (inactive)	> 10 µM (inactive)	> 10 µM (inactive)	> 10 µM (inactive)	> 10 µM (inactive)	> 10 µM (inactive)	> 10 µM (inactive)	> 10 µM (inactive)	> 10 µM (inactive)	> 10 µM (inactive)	> 10 µM (inactive)	> 10 µM (inactive)	> 10 µM (inactive)	> 10 µM (inactive)
